Values quoted from earlier work in paper PMC9370779, “Traditional Medicinal Uses, Phytochemistry, Biological Properties, and Health Applications of Vitex sp” (Plants, 2022).
“Also recorded” adds a separate entry of the source. Like-named read-outs stand apart in the source and are kept apart here.

Experiments:
[1] = tested on: T. b rhodesiense; set-up: method as in PMID 25886869
[2] = tested on: cyclooxygenase-1 (COX-1); set-up: method as in PMID 11842334
[3] = tested on: African green monkey kidney (Vero) cell lines; set-up: method as in PMID 11842334
[4] = target: cyclooxygenase-2 (COX-2)
[5] = set-up: method as in doi:10.1016/j.phytol.2019.11.018
[6] = set-up: method as in PMID 26034885
[7] = tested on: human colorectal carcinoma (HCT-116) cells; set-up: method as in PMID 26034885
[8] = tested on: human fetal lung fibroblast (MRC15) cells; set-up: method as in PMID 26034885
[9] = tested on: LPS-induced NO production; set-up: method as in PMID 31302252
[10] = tested on: Plasmodium falciparum; set-up: method as in PMID 32438132
[11] = set-up: method as in PMID 23150078; details: 100 mg/kg dose
[12] = tested on: lymphocytic leukemia (P388) cells; set-up: method as in PMID 9332026
[13] = set-up: method as in PMID 27118321; details: ABTS stated for 131
[14] = tested on: LPS-induced NO production; set-up: method as in doi:10.1177/1934578X19848178; details: at lower doses/concentrations
[15] = tested on: LPS-stimulated NO production

2-(3′,4′-dimethoxyphenyl)-7-hydroxychromen-4-one [Compound 125]
trypanocidal activity [1]: All compounds exhibited moderate trypanocidal activity against T. b rhodesiense

CO[C@H]1CC2C(C=O)=C(C)CC2O1 (stereo partly drawn) [Compound 6, Tarumal]
COX-1 inhibition (in words) [2]: low inhibition
cytotoxicity against Vero cell lines [3]: no cytotoxicity

COc1cc(C(=O)OC2C[C@@H](O)[C@@H]3C=CO[C@@H](C[C@@H]4O[C@H](CO)[C@@H](O)[C@H](O)[C@H]4O)[C@H]23)ccc1O (stereo partly drawn) [Compound 7, pedunculariside]
IC50 value, inhibition of COX-2 [4]: 150 ± 210 µg/mL
inhibition of COX-2 (in words) [4]: preferential inhibition of COX-2
COX-1 inhibition (in words) [2]: low
COX-1 inhibition (in words) ([2]; listed as pedunculariside): little inhibitory effect
cytotoxicity against Vero cell lines [3]: no cytotoxicity

COC1CC2C(O)C=C(COC(=O)c3ccc(O)cc3)C2C(OC)O1 (stereo not drawn) [Compound 23, ishindacin A]
percentage scavenging activities on stable free radicals [5]: 27.14%

CO[C@H]1C[C@@H]2[C@@H](C(COC(=O)c3ccc(O)cc3)=C[C@H]2O)[C@H](OC)O1 [Compound 24, isonishindacin A]
percentage scavenging activities on stable free radicals [5]: 25.80%

C=C1CCC2C(C)(C)CCCC2(C)C1CC(O)C1=CC(=O)OC1O (stereo not drawn) [Compound 71, 12-epivitexolide A]
antibacterial activity [6]: moderate antibacterial
cytotoxic activity against HCT-116 cells [7]: cytotoxic activities; also recorded: cytotoxic activity
cytotoxic activity against MRC15 cells [8]: cytotoxic activities; also recorded: cytotoxic activity

C=C1CC(O)C2C(C)(C)CCCC2(C)C1CC(O)C1=CC(=O)OC1O (stereo not drawn) [Compound 72, vitexolide B]
cytotoxic activity against HCT-116 cells [7]: cytotoxic activities; also recorded: Exhibited cytotoxic activity on the HCT-116 cell lines

C=C1CC(O)C2C(C)(C)CCCC2(C)C1CC(O)C1CC(=O)OC1O (stereo not drawn) [Compound 73, vitexolide C]
cytotoxic activity against HCT-116 cells [7]: cytotoxic activities; also recorded: Exhibited cytotoxic activity on the HCT-116 cell lines

C=C1CCC2C(C)(C)CCCC2(C)C1CC(O)C1=CC(=O)OC1 (stereo not drawn) [Compound 74, vitexolide E]
antibacterial activity [6]: moderate antibacterial
cytotoxic activity against HCT-116 cells [7]: cytotoxic activities; also recorded: cytotoxic activity
cytotoxic activity against MRC15 cells [8]: cytotoxic activities; also recorded: cytotoxic activity

C=C1CC[C@H]2C(C)(C)CCC[C@]2(C)[C@H]1CC(O)/C(C)=C/C(=O)O (stereo partly drawn) [Compound 75, vitexolin A]
cytotoxic activity against HCT-116 cells [7]: cytotoxic activities; also recorded: Exhibited cytotoxic activity on the HCT-116 cell lines

C=C(CC(=O)O)C(=O)C[C@H]1C(=C)CC[C@H]2C(C)(C)CCC[C@]12C [Compound 76, vitexolin B]
antibacterial activity [6]: moderate antibacterial
cytotoxic activity against HCT-116 cells [7]: cytotoxic activities; also recorded: cytotoxic activity
cytotoxic activity against MRC15 cells [8]: cytotoxic activities; also recorded: cytotoxic activity

CC1=C(CCC2=CCOC2=O)[C@@]2(C)CC[C@H](O[C@@H]3O[C@H](CO)[C@@H](O)[C@H](O)[C@H]3O)C(C)(C)[C@@H]2CC1 [Compound 97, (3S,5R,10S)-3-[(β-D-glucopyranosyl)oxy]-labd-8,13-dien-16,15-olide]
inhibition of LPS-induced NO production (in words) [9]: strong
IC50 ([9]; read-out: inhibition of NO production, IC50 value): 40.1 ± 1.3 µM

CC(C)C12C=CC3(OO1)C(CCC1C(C)(C)CCCC13C)C2 (stereo not drawn) [Compound 100, abieta-11(12)-ene-9α,13α-endoperoxide]
antimalarial activity (in words) [10]: exhibited antimalarial activity

CC(C)[C@@]12C=C[C@@]3(OO1)[C@@H](CCC1C(C)(C)C[C@H](OC(=O)CC(=O)O)C[C@@]13C)C2 (stereo partly drawn) [Compound 100a]
antimalarial activity (in words) [10]: exhibited antimalarial activity

CC(C)C12C=CC3(OO1)C(CCC1C(C)(C)CCCC13C)C2 (stereo not drawn) [Compound 101, abieta-11(12)-ene-9β,13β-endoperoxide]
times more active than compound 100 ([10]; Plasmodium falciparum): 54

CC(C)[C@]12C=C[C@]3(OO1)[C@@H](CCC1C(C)(C)C[C@H](OC(=O)CC(=O)O)C[C@@]13C)C2 (stereo partly drawn) [Compound 101a]
antimalarial activity (in words) [10]: exhibited antimalarial activity

C=CC1(C)CCC2C(C)(CCC3C(C)(C)CCCC32C)O1 (stereo not drawn) [Compound 102, 9αH-manoyl oxide]
antimalarial activity (in words) [10]: exhibited antimalarial activity

CC1(C)CC[C@@H]([C@@](O)(CO)C2CC[C@@]3(O)C4=CC(=O)[C@@H]5C[C@@H](O)[C@@H](O)C[C@]5(C)C4CC[C@]23C)O1 (stereo partly drawn) [Compound 111, 21-hydroxyshidasterone]
anti-inflammatory activity in rat paw oedema development assay [11]: showed anti-inflammatory activity; also recorded: Exhibited anti-inflammatory activity in rat paw oedema development assay at 100 mg/kg dose

CC1(C)CC[C@@H]([C@@H](CO)C2CC[C@@]3(O)C4=CC(=O)[C@@H]5C[C@@H](O)[C@@H](O)C[C@]5(C)C4CC[C@]23C)O1 (stereo partly drawn) [Compound 112, 11β-hydroxy-20-deoxyshidasterone]
anti-inflammatory activity in rat paw oedema development assay [11]: showed anti-inflammatory activity; also recorded: Exhibited anti-inflammatory activity in rat paw oedema development assay at 100 mg/kg dose

COC1C(COC(=O)C=Cc2ccc(O)c(O)c2)OC(c2c(O)cc3oc(-c4ccc(O)c(O)c4)cc(=O)c3c2O)C(O)C1O (stereo not drawn) [Compound 115, luteolin 6-C-(4″-methyl-6″-O-trans-caffeoylglucoside)]
cytotoxicity against P388 cells, IC50 values [12]: 7.6 µg/mL

O=C(C=Cc1ccc(O)c(O)c1)OCC1OC(c2c(O)cc3oc(-c4ccc(O)c(O)c4)cc(=O)c3c2O)C(O)C(O)C1O (stereo not drawn) [Compound 116, luteolin 6-C-(6″-O-trans-caffeoylglucoside)]
cytotoxicity against P388 cells, IC50 values [12]: 14 µg/mL

O=C(C=Cc1ccc(O)c(O)c1)OC1C(c2c(O)cc3oc(-c4ccc(O)c(O)c4)cc(=O)c3c2O)OC(CO)C(O)C1O (stereo not drawn) [Compound 117, luteolin 6-C-(2″-O-trans-caffeoylglucoside)]
cytotoxicity against P388 cells, IC50 values [12]: 56 µg/mL

COc1cc(-c2oc3cc(O)cc(O)c3c(=O)c2OC)ccc1O [Compound 122, 2-(5′-methoxyphenyl)-4′,5,7-trihydroxy-3-methoxychromen-4-one]
trypanocidal activity [1]: All compounds exhibited moderate trypanocidal activity against T. b rhodesiense

COc1cc(O)c2c(=O)c(OC)c(-c3ccc(O)cc3)oc2c1 [Compound 123, 2-(4′-hydroxyphenyl)-5-hydroxy-3,7-dimethoxy-chromen-4-one]
trypanocidal activity [1]: All compounds exhibited moderate trypanocidal activity against T. b rhodesiense

O=c1c(O)c(-c2ccc(O)cc2)oc2cc(O)cc(O)c12 [Compound 124, 2-(4-hydroxyphenyl)-3,5,7-trihydroxychromen-4-one]
trypanocidal activity [1]: All compounds exhibited moderate trypanocidal activity against T. b rhodesiense

COc1cc(-c2c(O)c(C(=O)O)cc3cc(OC)c(O)cc23)ccc1O [Compound 131, vitexnegheteroin G]
antioxidant activity [13]: antioxidant activity; also recorded: Exhibited antioxidant activities using ABTS scavenging activities

COc1cc2c(cc1O)C(c1ccc(OC)c(OC)c1)C(CO)C(C=O)=C2 (stereo not drawn) [Compound 137, 6-hydroxy-4-(3,4-dimethoxyphenyl)-3-hydroxymethyl-7-methoxy-3,4-dihydro-2-naphthaldehyde]
inhibitory effects on NO generation [14]: minor effects of inhibitory

COc1ccc([C@H]2c3c(ccc(O)c3OC)C=C(C=O)[C@@H]2CO)cc1OC [Compound 138, 6-hydroxy-4-(3,4-dimethoxyphenyl)-3-hydroxymethyl-5-methoxy-3,4-dihydro-2-napthaldehyde]
inhibitory effects on NO generation [14]: minor effects of inhibitory

CO[C@H]1O[C@H](COC(=O)c2ccc(O)cc2)[C@@H](O)[C@H](O)[C@H]1O [Compound 155, methyl (6-O-4-hydroxybenzoyl)-α-D-glucopyranoside]
antioxidant activity via ABTS radical scavenging assay: Exhibited antioxidant and NO inhibitory activities.
inhibitory activity on LPS-stimulated NO production [15]: Exhibited antioxidant and NO inhibitory activities.

O=C(OC[C@H]1O[C@@H](Oc2ccc(O)cc2)[C@H](O)[C@@H](O)[C@@H]1O)c1ccc(O)cc1 [Compound 156, breynioside A]
antioxidant activity via ABTS radical scavenging assay: Exhibited antioxidant and NO inhibitory activities.
inhibitory activity on LPS-stimulated NO production [15]: Exhibited antioxidant and NO inhibitory activities.

O=C(OC[C@H]1O[C@@H](OC(=O)c2ccc(O)cc2)[C@H](O)[C@@H](O)[C@@H]1O)c1ccc(O)cc1 [Compound 157, 1,6-di-O-4-hydroxybenzoyl-β-D-glucopyranoside]
antioxidant activity via ABTS radical scavenging assay: Exhibited antioxidant and NO inhibitory activities.
inhibitory activity on LPS-stimulated NO production [15]: Exhibited antioxidant and NO inhibitory activities.

COc1cc(O[C@@H]2O[C@H](COC(=O)c3ccc(O)cc3)[C@@H](O)[C@H](O)[C@H]2O)ccc1O [Compound 158, dunnianoside D]
antioxidant activity via ABTS radical scavenging assay: Exhibited antioxidant and NO inhibitory activities.
inhibitory activity on LPS-stimulated NO production [15]: Exhibited antioxidant and NO inhibitory activities.
